Results: BigSolDB 2.1

Cc1ccc2cc(Br)ccc2n1
solubility (mole fraction)
Details | in DMF | in acetone | in acetonitrile | in ethanol | in ethyl acetate | in isopropanol | in methanol | in n-propanol | in toluene | in water
278.15 K | 0.00585 | 0.00678 | 0.00648 | 0.000938 | 0.0072 | 0.00191 | 0.000232 | 0.00218 | 0.00817 | 6.88e-06
283.15 K | 0.00675 | 0.00793 | 0.00743 | 0.00112 | 0.00844 | 0.00229 | 0.000276 | 0.00261 | 0.00953 | 8.1e-06
288.15 K | 0.00765 | 0.00926 | 0.00855 | 0.00131 | 0.0101 | 0.00274 | 0.000319 | 0.00317 | 0.0111 | 9.62e-06
293.15 K | 0.00869 | 0.0108 | 0.00974 | 0.00151 | 0.0117 | 0.0032 | 0.000372 | 0.00371 | 0.0132 | 1.13e-05
298.15 K | 0.00994 | 0.0126 | 0.0112 | 0.00179 | 0.0136 | 0.00375 | 0.000444 | 0.00438 | 0.0155 | 1.33e-05
303.15 K | 0.0116 | 0.0149 | 0.0131 | 0.00213 | 0.0159 | 0.00442 | 0.000525 | 0.00513 | 0.018 | 1.54e-05
308.15 K | 0.0137 | 0.0175 | 0.0154 | 0.00249 | 0.0187 | 0.00518 | 0.000613 | 0.00593 | 0.0212 | 1.82e-05
313.15 K | 0.0161 | 0.0204 | 0.0182 | 0.00289 | 0.0218 | 0.00608 | 0.000719 | 0.00687 | 0.0248 | 2.13e-05
318.15 K | 0.0188 | 0.0237 | 0.0213 | 0.00334 | 0.0255 | 0.00703 | 0.000849 | 0.0079 | 0.0286 | 2.48e-05
323.15 K | 0.0222 | 0.0276 | 0.0253 | 0.0039 | 0.0299 | 0.00812 | 0.000998 | 0.00914 | 0.0332 | 2.89e-05
